In patent publication US11286263B2, “Macrocyclic fluorine substituted indole derivatives” (The Broad Institute, Inc., priority 2017, dated 2022):
Structures can show the parent of a compound that is named as a salt. Where two headings read alike, the source gives them in different places.

Legend:
[1] = system: SUDHL5; assay: Antiproliferation assay SUDHL5 (Assay 7); type: cell-based; details: SUDHL5 cells, CellTiter-Glo, median, read-out: IC50 Antiproli SUDHL5 [M] (median)
Summary of the method: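 Cells plated in treatment plates plus a day 0 reference plate; incubated 72 h at 37 °C; CellTiter-Glo added, 10 min incubation, luminescence read; day 0 plate read at time zero.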

[2] = target: BCL-XL (Homo sapiens (Human), UniProt Q07817); assay: Protein-protein interaction assay BCL-XL/Bad BH3 peptide (BCL-XL assay), TR-FRET; type: binding; details: median
Experimental: Assay 2 Protein-Protein Interaction Assay: BCL-XL/Bad BH3 Peptide (BCL-XL Assay)
The dose-dependent inhibition by the compounds described in this invention of the interaction between BCL-XL and the BH3 domain of Bad (both human) was determined using a steady state binding competition assay with time-resolved fluorescence energy transfer (TR-FRET) readout. For that purpose BCL-XL (amino acids 1-212, C-terminal fused to a hexahistidine (6× His) tag (SEQ ID 3) and a synthetic Bad BH3-derived peptide of sequence Biotin-PEG2-PEG2-NLWAAQRYGRELRR-Nle-SDEFVDSFKK-amide (SEQ ID 4) served as protein receptor and tracer ligand respectively. The recombinant BCL-XL protein (expressed in Ecol) was purchased from BPS Bioscience (San Diego, Calif., USA). The Bad BH3-derived peptide can be obtained from e.g. Biosyntan (Berlin, Germany).
In the assay 11 different concentrations of each compound (0.1 nM, 0.33 nM, 1.1 nM, 3.8 nM, 13 nM, 44 nM, 0.15 μM, 0.51 μM, 1.7 μM, 5.9 μM and 20 μM) were typically measured as duplicates in the same microtiter plate. For that, 100-fold concentrated DMSO solutions were prepared by serial dilutions (1:3.4) of a 2 mM stock solution in a clear, 384-well microtiter plate (Greiner Bio-One, Frickenhausen, Germany). From there, 50 nl were transferred in a dark test plate (Greiner Bio-One, Frickenhausen, Germany). The assay was initiated by addition of 2 μl of a 2,5-fold concentrated His-BCL-XL solution (usually for a 1 nM end concentration in 5 μl reaction volume) in aqueous assay buffer [50 mM Tris/HCl pH 7, 100 mM sodium chloride (NaCl), 50 μM potassium fluoride (KF), 0.005% Tween-20, 2 mM DTT, 0.1% bovine gamma globulin (BGG)] to the compounds in the assay plate. This was followed by a 10-minute incubation step at 22° C. for pre-equilibration of the putative complex between His-BCL-XL and the compounds. After that, 3 μl of a 1.67-fold concentrated solution (in assay buffer) consisting of Bad BH3-derived peptide (1 nM end concentration) and TR-FRET detection reagents [1.67 nM anti-His-Eu cryptate and 1.67 nM streptavidin-XL665 (both from Cisbio Bioassays, Codolet, France)], were added.
The mixture was incubated in the dark for one hour at 22° C. and then overnight at 4° C. The formation of BCL-XL/Bad complexes was determined by measuring the resonance energy transfer of the anti-His-Eu-cryptate antibody to the streptavidin-XL665 present in the reaction. For that purpose, the fluorescence emission at 620 nm and 665 nm after excitation at 330-350 nm was measured in a TR-FRET measuring instrument, for instance a Rubystar or a Pherastar (both from BMG Lab Technologies, Offenburg, Germany) or a Viewlux (Perkin-Elmer). The ratio of the emission at 665 nm and at 622 nm was used as indicator of the amount of BCL-XL/Bad complexes present.
The resulting data (ratio) were normalized, taking 0% inhibition as the mean value of control measurements (usually 32 data points) where all reagents were included. In this case 50 nl DMSO were used instead of compounds. A 100% inhibition corresponded to the mean value of control measurements (usually 32 data points) where all reagents except BCL-XL were included. IC50 values were determined by regression analysis based on a 4 parameter equation (minimum, maximum, IC50, Hill; Y=Max+(Min−Max)/(1+(X/IC50)^Hill) using the Screener Software (Genedata).

Sequence of BCL-XL (Q07817 1-212): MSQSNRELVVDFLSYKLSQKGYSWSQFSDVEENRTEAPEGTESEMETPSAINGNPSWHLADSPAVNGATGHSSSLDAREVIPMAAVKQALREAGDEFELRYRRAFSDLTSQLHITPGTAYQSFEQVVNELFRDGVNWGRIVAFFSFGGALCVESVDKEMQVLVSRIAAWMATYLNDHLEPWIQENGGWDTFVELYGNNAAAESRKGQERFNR

Row | IC50 ([1]; Homo sapiens, SU-DHL-5, 72 h) [M] | IC50 ([1]; 72 h) [M] | IC50 [2] [nM] | Molecule
1 | 1.4e-06 | – | – | Cc1c2c(nn1C)COCCCCn1c(C(=O)O)c(CCCOc3cccc4ccccc34)c3ccc(F)c-2c31 (racemic) [Example 2, (rac)-4-fluoro-2,3-dimethyl-7-[3-(naphthalen-1-yloxy)propyl]-2,10,11,12,13,15-hexahydro-pyrazolo[4′,3′:9,10][1,6]oxazacycloundecino[8,7,6-hi]indole-8-carboxylic acid]
2 | – | 1.5e-06 | > 20000 | (rac)-1-(3-((2,3-dihydro-1H-inden-4-yl)oxy)propyl)-12-ethyl-13-fluoro-11-methyl-4,5,6,7,9,11-hexahydropyrazolo[4′,3′:9,10][1]oxa[6]azacycloundecino[8,7,6-hi]indole-2-carboxylic acid [Example 30]
3 | 1.6e-06 | – | > 20000 | CCc1nn(C)c2c1-c1c(F)ccc3c(CCCOc4cccc5ccccc45)c(C(=O)O)n(c13)CCCCOC2 (racemic) [Example 37, (rac)-12-ethyl-13-fluoro-10-methyl-1-(3-(naphthalen-1-yloxy)propyl)-4,5,6,7,9,10-hexahydro-pyrazolo[4′,3′:9,10][1]oxa[6]azacycloundecino[8,7,6-hi]indole-2-carboxylic acid]
4 | 3e-06 | – | > 20000 | Cc1nn(C)c2c1-c1c(F)ccc3c(CCCOc4ccc(F)c5ccccc45)c(C(=O)O)n(c13)CCCCOC2 (racemic) [Example 33, (rac)-13-fluoro-1-(3-((4-fluoronaphthalen-1-yl)oxy)propyl)-10,12-dimethyl-4,5,6,7,9,10-hexahydropyrazolo[4′,3′:9,10][1]oxa[6]azacycloundecino[8,7,6-hi]indole-2-carboxylic acid]
5 | 3.7e-07 | – | > 20000 | CCc1c2c(nn1C)CN(C)CCCCn1c(C(=O)O)c(CCCOc3cccc4cc(F)ccc34)c3ccc(F)c-2c31 (racemic) [Example 53, (rac)-3-ethyl-4-fluoro-7-{3-[(6-fluoro-1-naphthyhoxy]propyl}-2,14-dimethyl-10,11,12,13,14,15-hexahydro-2H-pyrazolo[3′,4′:8,9][1,6]diazacycloundecino[10,11,1-hi]indole-8-carboxylic acid]
6 | – | 3.2e-07 | > 20000 | CCc1c2c(nn1C)COCCCCn1c(C(=O)O)c(CCCOc3cccc4cc(F)ccc34)c3ccc(F)c-2c31 (single isomer, unassigned; enantiomer 1) [Example 24, 3-ethyl-4-fluoro-7-{3-[(6-fluoronaphthalen-1-yl)oxy]propyl}-2-methyl-2,10,11,12,13,15-hexahydropyrazolo[4′,3′:9,10][1,6]oxazacycloundecino[8,7,6-hi]indole-8-carboxylic acid (enantiomer 1)]
7 | 1e-06 | – | > 20000 | Cc1c2c(nn1C)COCCCCn1c(C(=O)O)c(CCCOc3cccc4c3CCC4)c3ccc(F)c-2c31 (racemic) [Example 19, (rac)-1-(3-((2,3-dihydro-1H-inden-4-yl)oxy)propyl)-13-fluoro-11,12-dimethyl-4,5,6,7,9,11-hexahydropyrazolo[4′,3′:9,10][1]oxa[6]azacycloundecino[8,7,6-hi]indole-2-carboxylic acid]
8 | 1.8e-06 | – | > 20000 | Cc1nn(C)c2c1-c1c(F)ccc3c(CCCOc4cccc5ccccc45)c(C(=O)O)n(c13)CCCCOC2 (racemic) [Example 10, (rac)-13-fluoro-10,12-dimethyl-1-(3-(naphthalen-1-yloxy)propyl)-4,5,6,7,9,10-hexahydro-pyrazolo[4′,3′:9,10][1]oxa[6]azacycloundecino[8,7,6-hi]indole-2-carboxylic acid]
9 | – | 2.9e-07 | – | Cc1c2c(nn1C)COCCCCn1c(C(=O)O)c(CCCOc3cccc4cc(F)ccc34)c3ccc(F)c-2c31 (single isomer, unassigned; enantiomer 1) [Example 13, 4-fluoro-7-{3-[(6-fluoronaphthalen-1-yl)oxy]propyl}-2,3-dimethyl-2,10,11,12,13,15-hexahydro-pyrazolo[4′,3′:9,10][1,6]oxazacycloundecino[8,7,6-hi]indole-8-carboxylic acid-N-ethylethanamine salt (enantiomer 1)]
10 | – | 6.4e-07 | – | Cc1c2c(nn1C)COCCCCn1c(C(=O)O)c(CCCOc3cccc4ccccc34)c3ccc(F)c-2c31 (single isomer, unassigned; enantiomer 1) [Example 3, 4-fluoro-2,3-dimethyl-7-[3-(naphthalen-1-yloxy)propyl]-2,10,11,12,13,15-hexahydropyrazolo-[4′,3′:9,10][1,6]oxazacycloundecino[8,7,6-hi]indole-8-carboxylic acid-N-ethylethanamine salt (enantiomer 1)]
11 | – | 6.2e-07 | – | CCc1c2c(nn1C)COCCCCn1c(C(=O)O)c(CCCOc3ccc(F)c4ccccc34)c3ccc(F)c-2c31 (single isomer, unassigned; enantiomer 1) [Example 27, 3-ethyl-4-fluoro-7-{3-[(4-fluoronaphthalen-1-yl)oxy]propyl}-2-methyl-2,10,11,12,13,15-hexahydropyrazolo[4′,3′:9,10][1,6]oxazacycloundecino[8,7,6-hi]indole-8-carboxylic acid-N-ethylethanamine salt (enantiomer 1)]
12 | – | 2.7e-07 | – | CCc1c2c(nn1C)COCCCCn1c(C(=O)O)c(CCCOc3cccc4cc(F)ccc34)c3ccc(F)c-2c31 (single isomer, unassigned; enantiomer 1) [Example 22, 3-ethyl-4-fluoro-7-{3-[(6-fluoronaphthalen-1-yl)oxy]propyl}-2-methyl-2,10,11,12,13,15-hexahydropyrazolo[4′,3′:9,10][1,6]oxazacycloundecino[8,7,6-hi]indole-8-carboxylic acid-N-ethylethanamine salt (enantiomer 1)]
13 | – | 7.5e-07 | – | CCc1c2c(nn1C)COCCCCn1c(C(=O)O)c(CCCOc3cccc4ccccc34)c3ccc(F)c-2c31 (single isomer, unassigned; enantiomer 1) [Example 7, 3-ethyl-4-fluoro-2-methyl-7-{3-[(naphthalen-1-yl)oxy]propyl}-2,10,11,12,13,15-hexahydro-pyrazolo[4′,3′:9,10][1,6]oxazacycloundecino[8,7,6-hi]indole-8-carboxylic acid-N-ethylethanamine salt (enantiomer 1)]
14 | – | 1.4e-06 | – | CCc1c2c(nn1C)COCCCCn1c(C(=O)O)c(CCCOc3cccc4cc(F)ccc34)c3ccc(F)c-2c31 (single isomer, unassigned; enantiomer 2) [Example 23, 3-ethyl-4-fluoro-7-{3-[(6-fluoronaphthalen-1-yl)oxy]propyl}-2-methyl-2,10,11,12,13,15-hexahydropyrazolo[4′,3′:9,10][1,6]oxazacycloundecino[8,7,6-hi]indole-8-carboxylic acid-N-ethylethanamine salt (enantiomer 2)]
15 | – | 6.8e-07 | – | CCc1nn(C)c2c1-c1c(F)ccc3c(CCCOc4cccc5cc(F)ccc45)c(C(=O)O)n(c13)CCCCOC2 (single isomer, unassigned; enantiomer 1) [Example 39, 3-ethyl-4-fluoro-7-{3-[(6-fluoronaphthalen-1-yl)oxy]propyl}-1-methyl-1,10,11,12,13,15-hexahydropyrazolo[4′,3′:9,10][1,6]oxazacycloundecino[8,7,6-hi]indole-8-carboxylic acid-N-ethylethanamine salt (enantiomer 1)]
